Measurements published in patent US9181234B2, “Antibacterial compounds” (priority 2010, dated 2015).
Values after ≈ are worked out from the molar mass of the structure shown.

Experiments:
[1] = system: Streptococcus pyogenes (Isolate ID ATCC 51339); assay: Antibacterial activity, MIC, S. pyogenes; format: cell-based; details: Streptococcus pyogenes, ATCC51339, Gram positive strain; broth microdilution or agar dilution
Outline: (§1)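 Per CLSI standard M7-A7, minimum inhibitory concentrations were measured by agar dilution or by broth microdilution.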

[2] = system: Haemophilus influenzae (Isolate ID ATCC 49247); assay: Antibacterial activity, MIC, H. influenzae; format: cell-based; details: Haemophilus influenzae, ATCC49247; Gram negative strain; broth microdilution or agar dilution
Outline: as §1

[3] = system: Enterococcus faecalis (Isolate ID ATCC 29212); assay: Antibacterial activity, MIC, E. faecalis; format: cell-based; details: Enterococcus faecalis, ATCC29212; Gram positive strain; broth microdilution or agar dilution
Outline: as §1

[4] = system: Staphylococcus aureus (Isolate ID ATCC 29213); assay: Antibacterial activity, MIC, S. aureus; format: cell-based; details: Staphylococcus aureus, ATCC29213, Gram positive strain; broth microdilution or agar dilution
Outline: as §1

[5] = physchem; details: kinetic from dmso stock
Outline: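 DMSO doubling dilutions were diluted twenty-fold into 100 mM citrate (pH 4), PBS (pH 7.4) or carbonate-bicarbonate (pH 9). After 24 h equilibration at room temperature, absorbance was read at 620 nm. The reported value is the highest concentration without measurable precipitate.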

[6] = pH 7.4, aqueous buffer, Max Solubility
[7] = pH 7.4, aqueous buffer, Solubility (pH 7.4)
[8] = pH 7.4, aqueous buffer, Solubility Range
[9] = pH 7.4, aqueous buffer, Solubility Range (maximum solubility)
[10] = pH 9, aqueous buffer, Max Solubility
[11] = pH 9, aqueous buffer, Solubility Range (maximum solubility)

Row | Compound | MIC [1] [µg/mL] | MIC [2] [µg/mL] | MIC [3] [µg/mL] | MIC [4] [µg/mL] | solubility at 24 h [5, 6] [µg/mL] | solubility at 24 h [5, 7] [µg/mL] | solubility at 24 h [5, 8] [µg/mL] | solubility at 24 h [5, 9] [µg/mL] | solubility at 24 h [5, 10] [µg/mL] | solubility at 24 h [5, 11] [µg/mL]
1 | CCCC1(C(=O)O)CCN(c2ncc(-c3cc(-c4cc(OC)ccn4)c4sc(NC(=O)NCC)nc4c3)cn2)CC1 [Compound 122] | ≤ 0.25 | 1 to 16 (≈ 1.74 to 27.8 µM) | ≤ 0.25 | ≤ 0.25 | ≥ 800 | ≥ 800 | > 800 | > 800 | – | –
2 | CCCC1(C(=O)O)CCN(c2ncc(-c3cc(-c4cc(C#N)ccn4)c4sc(NC(=O)NCC)nc4c3)cn2)CC1 [Compound 123] | ≤ 0.25 | > 16 | ≤ 0.25 | ≤ 0.25 | ≥ 800 | ≥ 800 | > 800 | > 800 | – | –
3 | CCCC1(C(=O)O)CCN(c2ncc(-c3cc(-c4ccc(C#N)cn4)c4sc(NC(=O)NCC)nc4c3)cn2)CC1 [Compound 124] | ≤ 0.25 | 1 to 16 (≈ 1.75 to 28 µM) | ≤ 0.25 | ≤ 0.25 | ≥ 800 | ≥ 800 | > 800 | > 800 | – | –
4 | CCCC1(C(=O)O)CCN(c2ncc(-c3cc(-c4ncnc5[nH]ccc45)c4sc(NC(=O)NCC)nc4c3)cn2)CC1 [Compound 125] | ≤ 0.25 | > 16 | ≤ 0.25 | 0.25 to 1 (≈ 0.427 to 1.71 µM) | – | 50 (≈ 85.4 µM) | 12.5 to 400 (≈ 21.3 to 683 µM) | – | ≥ 800 | > 800
5 | CCCC1(C(=O)O)CCN(c2ncc(-c3cc(-c4ncccc4C#N)c4sc(NC(=O)NCC)nc4c3)cn2)CC1 [Compound 126] | ≤ 0.25 | 1 to 16 (≈ 1.75 to 28 µM) | ≤ 0.25 | ≤ 0.25 | – | 100 (≈ 175 µM) | 12.5 to 400 (≈ 21.9 to 701 µM) | – | ≥ 800 | > 800
6 | CCCC1(C(=O)O)CCN(c2ncc(-c3cc(-c4nccc(OC)n4)c4sc(NC(=O)NCC)nc4c3)cn2)CC1 [Compound 127] | ≤ 0.25 | > 16 | ≤ 0.25 | ≤ 0.25 | – | 12.5 (≈ 21.7 µM) | 12.5 to 400 (≈ 21.7 to 694 µM) | – | 25 (≈ 43.4 µM) | 12.5 to 400 (≈ 21.7 to 694 µM)
7 | CCNC(=O)Nc1nc2cc(-c3cnc(N4CCC(N)(C(=O)O)CC4)nc3)cc(-c3ccccn3)c2s1 [Compound 128, 4-amino-1-[5-[2-(ethylcarbamoylamino)-7-(2-pyridyl)-1,3-benzothiazol-5-yl]pyrimidin-2-yl]piperidine-4-carboxylic acid] | 1 to 16 (≈ 1.93 to 30.9 µM) | > 16 | > 16 | > 16 | – | 25 (≈ 48.2 µM) | 12.5 to 400 (≈ 24.1 to 771 µM) | – | – | –
8 | CCNC(=O)Nc1nc2cc(-c3cnc(N4CCC(C(=O)O)(c5ccccc5)CC4)nc3)cc(-c3ccccn3)c2s1 [Compound 129] | 0.25 to 1 (≈ 0.431 to 1.73 µM) | > 16 | ≤ 0.25 | 0.25 to 1 (≈ 0.431 to 1.73 µM) | – | 12.5 (≈ 21.6 µM) | 12.5 to 400 (≈ 21.6 to 690 µM) | – | – | –
9 | CCNC(=O)Nc1nc2cc(-c3cnc(N4CCC(C#N)(C(=O)O)CC4)nc3)cc(-c3ccccn3)c2s1 [Compound 130] | 1 to 16 (≈ 1.89 to 30.3 µM) | > 16 | 1 to 16 (≈ 1.89 to 30.3 µM) | > 16 | – | 200 (≈ 378 µM) | 12.5 to 400 (≈ 23.6 to 757 µM) | – | – | –
10 | CCNC(=O)Nc1nc2cc(-c3cnc(N4CCC(O)(C(=O)O)CC4)nc3)cc(-c3ccccn3)c2s1 [Compound 131] | ≤ 0.25 | 1 to 16 (≈ 1.92 to 30.8 µM) | 0.25 to 1 (≈ 0.481 to 1.92 µM) | 1 to 16 (≈ 1.92 to 30.8 µM) | – | 100 (≈ 192 µM) | 12.5 to 400 (≈ 24.1 to 770 µM) | – | – | –
11 | CCNC(=O)Nc1nc2cc(-c3cnc(N4CCC(OC)(C(=O)O)CC4)nc3)cc(-c3ccccn3)c2s1 [Compound 132] | ≤ 0.25 | 1 to 16 (≈ 1.87 to 30 µM) | ≤ 0.25 | 0.25 to 1 (≈ 0.469 to 1.87 µM) | – | 400 (≈ 750 µM) | 400 to 800 (≈ 750 to 1500 µM) | – | – | –
12 | CCNC(=O)Nc1nc2cc(-c3cnc(N4CCC(C(=O)O)(S(C)(=O)=O)CC4)nc3)cc(-c3ccccn3)c2s1 [Compound 133] | 1 to 16 (≈ 1.72 to 27.5 µM) | > 16 | 1 to 16 (≈ 1.72 to 27.5 µM) | > 16 | – | ≥ 800 | > 800 | – | – | –
13 | CCNC(=O)Nc1nc2cc(-c3cnc(N4CCC(Cc5ccccc5)(C(=O)O)CC4)nc3)cc(-c3ccccn3)c2s1 [Compound 134] | 0.25 to 1 (≈ 0.421 to 1.68 µM) | > 16 | ≤ 0.25 | ≤ 0.25 | – | 100 (≈ 168 µM) | 12.5 to 400 (≈ 21.1 to 674 µM) | – | – | –
